Read-outs that look alike come from different tables or passages of the source.
Experiments:
primary human T-cells [1] = test: Proliferation assay after 5 days (CellTiter-Glo, CD3 stimulation; PBS counter screen); type: cell-based; conditions: Homo sapiens, T-cell, 120 h, CD3 stimulation; for Emax: 5 days, normalized to reference compound A1 as stimulator control = 100%, DMSO neutral control, read-out: Emax proliferation (% activation); for EC50: primary human T-cells, CellTiter-Glo after 5 days, EC50 of fitted sigmoidal curve, read-out: Tcell Proliferation CD3 EC50
Summary of the method: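 ATP-based luminescence (CellTiter-Glo 2.0, room temperature) measured proliferation 5 days after compound addition to CD3-stimulated or unstimulated primary human T-cells. Flags marked compounds that lowered viability or activated unstimulated cells.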

primary human T-cells [2] = test system: primary human T-cells

SMILES	EC50 (primary human T-cells [2]) [µM]	Emax (primary human T-cells [1]) [%]	EC50 (primary human T-cells [1]) [µM]
N[C@H]1CS(=O)(=O)c2cc(F)c(-c3nnc(NC45CC(F)(C4)C5)o3)cc2N(Cc2ccc(Cl)cc2)C1=O [Example 499, (3R)-3-amino-5-[(4-chlorophenyl)methyl]-8-fluoro-7-[5-[(3-fluoro-1-bicyclo[1.1.1]pentanyl)amino]-1,3,4-oxadiazol-2-yl]-1,1-dioxo-2,3-dihydro-1λ^6,5-benzothiazepin-4-one]	2.23	68	0.768
N[C@H]1CS(=O)(=O)c2cc(F)c(-c3nnc(NC45CC(Cl)(C4)C5)o3)cc2N(Cc2ccc(Cl)cc2)C1=O [Example 500, (3R)-3-amino-7-[5-[(3-chloro-1-bicyclo[1.1.1]pentanyl)amino]-1,3,4-oxadiazol-2-yl]-5-[(4-chlorophenyl)methyl]-8-fluoro-1,1-dioxo-2,3-dihydro-1λ^6.5-benzothiazepin-4-one]	0.911	97	1.23
N[C@H]1CS(=O)(=O)c2cc(F)c(-c3nnc(NC45CC(C4)C5)o3)cc2N(Cc2ccc(Cl)cc2)C1=O [Example 501, (3R)-3-amino-7-[5-(1-bicyclo[1.1.1]pentanylamino)-1,3,4-oxadiazol-2-yl]-5-[(4-chlorophenyl)methyl]-8-fluoro-1,1-dioxo-2,3-dihydro-1λ^6.5-benzothiazepin-4-one]	3.12	92	0.473
CC(F)(F)CNc1nnc(-c2cc3c(cc2F)S(=O)(=O)C[C@H](N)C(=O)N3Cc2ccc(Cl)cc2)o1 [Example 502, (3R)-3-amino-5-[(4-chlorophenyl)methyl]-7-[5-(2,2-difluoropropylamino)-1,3,4-oxadiazol-2-yl]-8-fluoro-1,1-dioxo-2,3-dihydro-1λ^6,5-benzothiazepin-4-one]	> 10	72	4.46
C[C@@H](COC(F)(F)F)Nc1nnc(-c2cc3c(cc2F)S(=O)(=O)C[C@H](N)C(=O)N3Cc2ccc(Cl)cc2)o1 [Example 503, (3R)-3-amino-5-[(4-chlorophenyl)methyl]-8-fluoro-1,1-dioxo-7-[5-[[(1S)-1-methyl-2-(trifluoromethoxy)ethyl]amino]-1,3,4-oxadiazol-2-yl]-2,3-dihydro-1λ^6,5-benzothiazepin-4-one]	3.09	135	0.371
N[C@H]1CS(=O)(=O)c2cc(F)c(-c3nnc(NC4CC(C(F)(F)F)C4)o3)cc2N(Cc2ccc(Cl)cc2)C1=O (stereo partly drawn) [Example 504, (3R)-3-amino-5-[(4-chlorophenyl)methyl]-8-fluoro-1,1-dioxo-7-[5-[[3-(trifluoromethyl)cyclobutyl]amino]-1,3,4-oxadiazol-2-yl]-2,3-dihydro-1λ^6,5-benzothiazepin-4-one]	1.23	103	1.11
COC(=O)N1CC2CC(c3nc(-c4cc5c(cc4F)[S+]([O-])C[C@H](N)C(=O)N5Cc4ccc(OC(F)(F)C(F)F)cc4)no3)(C2)C1 (stereo partly drawn) [Example 511, methyl 1-[3-[(3R)-3-amino-8-fluoro-1,4-dioxo-5-[[4-(1,1,2,2-tetrafluoroethoxy)phenyl]methyl]-2,3-dihydro-1λ^4,5-benzothiazepin-7-yl]-1,2,4-oxadiazol-5-yl]-3-azabicyclo[3.1.1]heptane-3-carboxylate]	7.82	104	6.62
COC(=O)N1CC2CC(c3nc(-c4cc5c(cc4F)S(=O)(=O)C[C@H](N)C(=O)N5Cc4ccc(OC(F)(F)C(F)F)cc4)no3)(C2)C1 [Example 512, methyl 1-[3-[(3R)-3-amino-8-fluoro-1,1,4-trioxo-5-[[4-(1,1,2,2-tetrafluoroethoxy)phenyl]methyl]-2,3-dihydro-1λ^6,5-benzothiazepin-7-yl]-1,2,4-oxadiazol-5-yl]-3-azabicyclo[3.1.1]heptane-3-carboxylate]	0.993	162	–
COC(=O)N1CC2CC(c3nc(-c4cc5c(cc4F)S(=N)(=O)C[C@H](N)C(=O)N5Cc4ccc(OC(F)(F)C(F)F)cc4)no3)(C2)C1 (stereo partly drawn) [Example 520, methyl 1-[3-[(3R)-3-amino-8-fluoro-1-imino-1,4-dioxo-5-[[4-(1,1,2,2-tetrafluoroethoxy)phenyl]methyl]-2,3-dihydro-1λ^6,5-benzothiazepin-7-yl]-1,2,4-oxadiazol-5-yl]-3-azabicyclo[3.1.1]heptane-3-carboxylate]	1.15	42	0.267

The next lines start with results.

EC50 (primary human T-cells [2]) [µM]	SMILES	Emax (primary human T-cells [1]) [%]	EC50 (primary human T-cells [1]) [µM]
0.191	N[C@H]1CS(=O)(=O)c2cc(F)c(-c3nnc(N4CC5(CCCO5)C4)o3)cc2N(Cc2ccc(Cl)cc2)C1=O [Example 505, (3R)-3-amino-5-[(4-chlorophenyl)methyl]-8-fluoro-7-[5-(5-oxa-2-azaspiro[3.4]octan-2-yl)-1,3,4-oxadiazol-2-yl]-1,1-dioxo-2,3-dihydro-1λ^6,5-benzothiazepin-4-one]	94	0.181
1.32	CC(CC(F)(F)F)Nc1nnc(-c2cc3c(cc2F)S(=O)(=O)C[C@H](N)C(=O)N3Cc2ccc(Cl)cc2)o1 (stereo partly drawn) [Example 506, (3R)-3-amino-5-[(4-chlorophenyl)methyl]-8-fluoro-1,1-dioxo-7-[5-[(3,3,3-trifluoro-1-methyl-propyl)amino]-1,3,4-oxadiazol-2-yl]-2,3-dihydro-1λ^6.5-benzothiazepin-4-one]	88	0.243
8.04	CC1CN(Cc2nnc(-c3cc4c(cc3F)SC[C@H](N)C(=O)N4Cc3ccc(Cl)cc3)o2)C1 [Example 507, (3R)-3-amino-5-[(4-chlorophenyl)methyl]-8-fluoro-7-[5-[(3-methylazetidin-1-yl)methyl]-1,3,4-oxadiazol-2-yl]-2,3-dihydro-1,5-benzothiazepin-4-one]	74	2.23
0.459	CC(C)(C)c1nnc(-c2cc3c(cc2F)S(=O)(=O)C[C@H](N)C(=O)N3Cc2ccc(Cl)cc2)s1 [Example 508, (3R)-3-amino-7-(5-tert-butyl-1,3,4-thiadiazol-2-yl)-5-[(4-chlorophenyl)methyl]-8-fluoro-1,1-dioxo-2,3-dihydro-1λ^6,5-benzothiazepin-4-one]	110	0.396
0.0917	CC(C)(C)n1nc(-c2cc3c(cc2F)S(=O)(=O)C[C@H](N)C(=O)N3Cc2ccc(Cl)cc2)oc1=O [Example 510, 3-tert-butyl-5-[(3R)-3-amino-5-[(4-chlorophenyl)methyl]-8-fluoro-1,1,4-trioxo-2,3-dihydro-1λ^6,5-benzothiazepin-7-yl]-1,3,4-oxadiazol-2-one]	129	0.403
0.307	COC(F)(c1nc(-c2cc3c(cc2F)S(=O)(=O)C[C@H](N)C(=O)N3Cc2ccc(F)cc2)no1)C(F)(F)F (stereo partly drawn) [Example 513, (3R)-3-amino-8-fluoro-5-[(4-fluorophenyl)methyl]-1,1-dioxo-7-[5-(1,2,2,2-tetrafluoro-1-methoxy-ethyl)-1,2,4-oxadiazol-3-yl]-2,3-dihydro-1λ^6,5-benzothiazepin-4-one]	157	0.285
1.92	COC(F)(c1nc(-c2cc3c(cc2F)[S+]([O-])C[C@H](N)C(=O)N3Cc2ccc(F)cc2)no1)C(F)(F)F (stereo partly drawn) [Example 514, (3R)-3-amino-8-fluoro-5-[(4-fluorophenyl)methyl]-1-oxo-7-[5-(1,2,2,2-tetrafluoro-1-methoxy-ethyl)-1,2,4-oxadiazol-3-yl]-2,3-dihydro-1λ^4,5-benzothiazepin-4-one]	105	1.95
4.07	COC(F)(c1nc(-c2cc3c(cc2F)S(=N)(=O)C[C@H](N)C(=O)N3Cc2ccc(Cl)cc2)no1)C(F)(F)F (stereo partly drawn) [Example 515, (3R)-3-amino-5-[(4-chlorophenyl)methyl]-8-fluoro-1-imino-1-oxo-7-[5-(1,2,2,2-tetrafluoro-1-methoxy-ethyl)-1,2,4-oxadiazol-3-yl]-2,3-dihydro-1λ^6,5-benzothiazepin-4-one]	63	4.91
2.74	CC(C)(C)c1nc(-c2cc3c(cc2F)S(=N)(=O)C[C@H](N)C(=O)N3Cc2ccc(Cl)cc2)no1 (stereo partly drawn) [Example 516, (3R)-3-amino-7-(5-tert-butyl-1,2,4-oxadiazol-3-yl)-5-[(4-chlorophenyl)methyl]-8-fluoro-1-imino-1-oxo-2,3-dihydro-1λ^6,5-benzothiazepin-4-one]	51	8.33
5.53	CN=S1(=O)C[C@H](N)C(=O)N(Cc2ccc(OC(F)(F)F)cc2)c2cc(-c3nnc(C(C)(C)C)o3)c(F)cc21 (stereo partly drawn) [Example 519, (3R)-3-amino-7-(5-tert-butyl-1,3,4-oxadiazol-2-yl)-8-fluoro-1-methylimino-1-oxo-5-[[4-(trifluoromethoxy)phenyl]methyl]-2,3-dihydro-1λ^6,5-benzothiazepin-4-one]	72	4.37
> 10	Cc1cc2c(cc1-c1nnc(C3CN(C)CC(F)(F)C3)o1)N(Cc1ccc(Cl)cc1)C(=O)[C@@H](N)CS2(=O)=O (stereo partly drawn) [Example 524, (3R)-3-amino-5-[(4-chlorophenyl)methyl]-7-[5-(5,5-difluoro-1-methyl-3-piperidyl)-1,3,4-oxadiazol-2-yl]-8-methyl-1,1-dioxo-2,3-dihydro-1λ^6,5-benzothiazepin-4-one]	80	4.27
3.51	CCc1ncn(-c2cc3c(cc2F)S(=O)(=O)C[C@H](N)C(=O)N3Cc2ccc(Cl)cc2)n1 [Example 525, (3R)-3-amino-5-[(4-chlorophenyl)methyl]-7-(3-ethyl-1,2,4-triazol-1-yl)-8-fluoro-1,1-dioxo-2,3-dihydro-1λ^6,5-benzothiazepin-4-one]	67	0.935
